# Measurements from patent US20140135319A1, “6-SUBSTITUTED IMIDAZOPYRAZINES FOR USE AS MPS-1 AND TKK INHIBITORS IN THE TREATMENT OF HYPERPROLIFERATIVE DISORDERS” (BAYER INTELLECTUAL PROPERTY GMBH, priority 2010, published 2014).
# Biological target: T1, human kinase Mps-1 (Homo sapiens, UniProt P33981)
# T1 construct: N-terminally GST-tagged human full length recombinant Mps-1 kinase; GST (N); purchased Invitrogen, Karslruhe, Germany PV4071
# T1 sequence (P33981 1-857): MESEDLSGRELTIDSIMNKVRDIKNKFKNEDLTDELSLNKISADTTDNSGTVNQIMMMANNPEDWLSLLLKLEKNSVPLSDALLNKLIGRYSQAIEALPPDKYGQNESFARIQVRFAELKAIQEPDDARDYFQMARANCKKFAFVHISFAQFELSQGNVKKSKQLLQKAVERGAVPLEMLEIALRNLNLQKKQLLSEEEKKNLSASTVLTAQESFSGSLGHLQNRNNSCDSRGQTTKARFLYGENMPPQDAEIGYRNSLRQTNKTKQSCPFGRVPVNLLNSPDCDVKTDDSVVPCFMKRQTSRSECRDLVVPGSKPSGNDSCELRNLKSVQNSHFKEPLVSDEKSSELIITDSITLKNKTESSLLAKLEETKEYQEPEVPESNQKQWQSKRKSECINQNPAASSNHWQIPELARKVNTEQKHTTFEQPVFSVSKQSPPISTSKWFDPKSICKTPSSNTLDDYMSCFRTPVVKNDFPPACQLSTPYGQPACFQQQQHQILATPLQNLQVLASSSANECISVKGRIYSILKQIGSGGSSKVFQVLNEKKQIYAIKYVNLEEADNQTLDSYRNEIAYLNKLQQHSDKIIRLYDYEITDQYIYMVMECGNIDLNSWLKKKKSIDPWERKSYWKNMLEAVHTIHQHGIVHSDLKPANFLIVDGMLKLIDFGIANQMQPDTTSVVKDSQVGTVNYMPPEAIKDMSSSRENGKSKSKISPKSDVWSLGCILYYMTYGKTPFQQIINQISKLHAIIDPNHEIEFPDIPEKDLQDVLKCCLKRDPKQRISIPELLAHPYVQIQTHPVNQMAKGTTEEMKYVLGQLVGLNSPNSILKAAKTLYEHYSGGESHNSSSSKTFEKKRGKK
# Assay: Mps-1 kinase assay (TR-FRET)
# Type: biochemical
# Conditions: GST-tagged human full length recombinant Mps-1; 10 μM ATP; 1 μM peptide substrate; 60 min at 22° C.
# Description: The human kinase Mps-1 phosphorylates a biotinylated substrate peptide. Detection of the phosphorylated product is achieved by time-resolved fluorescence resonance energy transfer (TR-FRET) from Europium-labelled anti-phospho-Serine/Threonine antibody as donor to streptavidin labelled with cross-linked allophycocyanin (SA-XLent) as acceptor. Compounds are tested for their inhibition of the kinase activity.
# N-terminally GST-tagged human full length recombinant Mps-1 kinase (purchased from Invitrogen, Karslruhe, Germany, cat. no PV4071) was used. As substrate for the kinase reaction a biotinylated peptide of the amino-acid sequence […] (C-terminus in amide form, purchased from Biosynthan GmbH, Berlin) was used.
# The concentration of Mps-1 in the assay was adjusted to the activity of the enzyme lot and was chosen appropriate to have the assay in the linear range, typical enzyme concentrations were in the range of about 1 nM (final conc. in the 5 μl assay volume).
# The resulting mixture was incubated 1 h at 22° C. to allow the binding of the phosphorylated peptide to the anti-phospho(Ser/Thr)-Europium-antibody. Subsequently the amount of phosphorylated substrate was evaluated by measurement of the resonance energy transfer from the Europium-labelled anti-phospho(Ser/Thr) antibody to the Streptavidin-XLent. Therefore, the fluorescence emissions at 620 nm and 665 nm after excitation at 350 nm was measured in a Viewlux TR-FRET reader (PerkinElmer LAS, Rodgau-Jügesheim, Germany). The “blank-corrected normalized ratio” (a Viewlux specific readout, similar to the traditional ratio of the emissions at 665 nm and at 622 nm, in which blank and Eu-donor crosstalk are subtracted from the 665 nm signal before the ratio is calculated) was taken as the measure for the amount of phosphorylated substrate.
row,Structure (SMILES),IC50
1,"CC(C)(O)CNc1nc(-c2cccc(CC(N)=O)c2)cn2c(-c3ccc(C(=O)NC4CC4)cc3)cnc12 [Example 1-91, 4-{6-[3-(2-Amino-2-oxo-ethyl)phenyl]-8-[(2-hydroxy-2-methylpropyl)amino]imidazo[1,2-a]pyrazin-3-yl}-N-cyclopropylbenzamide]",4 nM
2,"Cc1cc(-c2cnc3c(NCC4CC4C)nc(-c4ccc(F)cc4)cn23)ccc1C(=O)NC1CC1 (stereo not shown) [Example 6-3, N-cyclopropyl-4-[6-(4-fluorophenyl)-8-{[(2-methylcyclopropyl)methyl]amino}imidazo[1,2-a]pyrazin-3-yl]-2-methylbenzamide]",10.4 nM
3,"O=C(NC1CC1)c1ccc(-c2cnc3c(NCCC(F)(F)F)nc(-c4ccn[nH]4)cn23)cc1F [Example 1-55, N-cyclopropyl-2-fluoro-4-{6-(1H-pyrazol-5-yl)-8-[(3,3,3-trifluoropropyl)amino]imidazo[1,2-a]pyrazin-3-yl}benzamide]",9.6 nM
4,"O=C(NC1CC1)c1ccc(-c2cnc3c(NCCCN4CCCC4=O)nc(-c4ccncc4)cn23)cc1 [Example 3-8, N-cyclopropyl-4-[8-{[3-(2-oxopyrrolidin-1-yl)propyl]amino}-6-(pyridin-4-yl)imidazo[1,2-a]pyrazin-3-yl]benzamide]",17.6 nM
5,"Cc1cc(-c2cnc3c(NCC4CCOC4)nc(C4=CCOCC4)cn23)ccc1C(=O)NC1CC1 (stereo not shown) [Example 6-11, N-cyclopropyl-4-{6-(3,6-dihydro-2H-pyran-4-yl)-8-[(tetrahydrofuran-3-ylmethyl)amino]imidazo[1,2-a]pyrazin-3-yl}-2-methylbenzamide]",6 nM
6,"CC(O)CNc1nc(-c2ccncc2)cn2c(-c3ccc(C(=O)NC4CC4)cc3)cnc12 (stereo not shown) [Example 3-23, N-cyclopropyl-4-{8-[(2-hydroxypropyl)amino]-6-(pyrdin-4-yl)imidazo [1,2-a]pyrazin-3-yl} benzamide]",8 nM
7,"CC(C)CNc1nc(-c2ccnc(Cl)c2)cn2c(-c3ccc(C(=O)NC4CC4)cc3)cnc12 [Example 1-7, 4-{6-(2-chloropyridin-4-yl)-8-[(2-methylpropyl)amino]imidazo[1,2-a]pyrazin-3-yl}-N-cyclo-propylbenzamide]",4.2 nM
8,"O=C(NC1CC1)c1ccc(-c2cnc3c(NCCC(F)(F)F)nc(-c4ccn[nH]4)cn23)cc1Cl [Example 1-38, 2-chloro-N-cyclopropyl-4-{6-(1H-pyrazol-5-yl)-8-[(3,3,3-trifluoropropyl)amino]imidazo[1,2-a]pyrazin-3-yl}benzamide]",14.1 nM
9,"Cc1nnc(-c2ccc(-c3cn4c(-c5ccc(C(=O)NC6CC6)cc5)cnc4c(NCC(C)C)n3)cc2)o1 [Example 1-22, N-cyclopropyl-4-{6-[4-(5-methyl-1,3,4-oxadiazol-2-yl)phenyl]-8-[(2-methylpropyl)amino]imidazo[1,2-a]pyrazin-3-yl}benzamide]",2.3 nM
10,"O=C(NC1CC1)c1ccc(-c2cnc3c(NCC4CCCCO4)nc(-c4ccncc4)cn23)cc1 (stereo not shown) [Example 3-36, N-cyclopropyl-4-{6-(pyridin-4-yl)-8-[(tetrahydro-2H-pyran-2-ylmethyl)amino]imidazo[1,2-a]pyrazin-3-yl} benzamide]",3.5 nM
11,"NCCCCCNc1nc(-c2cccc(CC(N)=O)c2)cn2c(-c3ccc(C(=O)NC4CC4)cc3)cnc12 [Example 1-96, 4-{6-[3-(2-Amino-2-oxo-ethyl)phenyl]-8-[(5-amino-pentyl)amino]imidazo[1,2-a]pyrazin-3-yl}-N-cyclo-propylbenzamide]",5.6 nM
12,"Cc1cc(-c2cnc3c(NCC4CC(F)(F)C4)nc(C4=CCOCC4)cn23)ccc1C(=O)NC1CC1 [Example 6-17, N-cyclopropyl-4-[8-{[(3,3-difluoro-cyclobutyl)methyl]amino}-6-(3,6-dihydro-2H-pyran-4-yl)imidazo [1,2-a]pyrazin-3-yl]-2-methylbenzamide]",10.5 nM
13,"O=C(NC1CC1)c1ccc(-c2cnc3c(NCCCF)nc(-c4ccncc4)cn23)cc1 [Example 3-33, N-cyclopropyl-4-{8-[(3-fluoropropyl)amino]-6-(pyridin-4-yl)imidazo [1,2-a]pyrazin-3-yl} benzamide]",3.2 nM
14,"CC(=O)NCCNc1nc(-c2ccncc2)cn2c(-c3ccc(C(=O)NC4CC4)cc3)cnc12 [Example 3-14, 4-[8-{[2-(acetylamino)ethyl]amino}-6-(pyridin-4-yl)imidazo[1,2-a]pyrazin-3-yl]-N-cyclo-propylbenzamide]",30.7 nM
15,"CCOc1ccc(-c2cn3c(-c4ccc(C(=O)NC5CC5)c(C)c4)cnc3c(NCCC(F)(F)F)n2)cn1 [Example 1-72, N-cyclopropyl-4-{6-(6-ethoxypyridin-3-yl)-8-[(3,3,3-trifluoropropyl)amino]imidazo[1,2-a]pyrazin-3-yl}-2-methyl-benzamide]",9.9 nM
16,"O=C(NC1CC1)c1ccc(-c2cnc3c(NCCOCC4CCCO4)nc(-c4ccccc4)cn23)cc1 (stereo not shown) [Example 3-41, N-cyclopropyl-4-(6-phenyl-8-{[2-(tetrahydrofuran-2-ylmethoxy)ethyl]amino}imidazo[1,2-a]pyrazin-3-yl)benzamide]",20.4 nM
17,"CC(C)(O)CNc1nc(-c2ccoc2)cn2c(-c3ccc(C(=O)NC4CC4)c(F)c3)cnc12 [Example 1-58, N-cyclopropyl-2-fluoro-4-{6-(furan-3-yl)-8-[(2-hydroxy-2-methyl-propyl)amino]imidazo [1,2-a]pyrazin-3-yl} benzamide]",23.1 nM
18,"NCCCCNc1nc(-c2cccc(CC(N)=O)c2)cn2c(-c3ccc(C(=O)NC4CC4)cc3)cnc12 [Example 1-95, 4-{8-[(4-Aminobutyl)amino]-6-[3-(2-amino-2-oxoethyl)phenyl]imidazo[1,2-a]pyrazin-3-yl}-N-cyclo-propylbenzamide]",19.2 nM
19,"Cc1cc(-c2cnc3c(NCCC(F)(F)F)nc(-c4ccoc4)cn23)ccc1C(=O)NC1CC1 [Example 1-71, N-cyclopropyl-4-{6-(furan-3-yl)-8-[(3,3,3-tri-fluoropropyl)amino]imidazo[1,2-a]pyrazin-3-yl}-2-methylbenzamide]",3.9 nM
20,"Cn1nccc1CNc1nc(-c2ccncc2)cn2c(-c3ccc(C(=O)NC4CC4)c(F)c3)cnc12 [Example 1-64, N-cyclopropyl-2-fluoro-4-[8-{[(1-methyl-1H-pyrazol-5-yl)methyl]amino}-6-(pyridin-4-yl)imidazo[1,2-a]pyrazin-3-yl]benzamide]",6.5 nM
21,"O=C(NC1CC1)c1ccc(-c2cnc3c(NCc4cccnc4)nc(-c4ccncc4)cn23)cc1 [Example 3-18, N-cyclopropyl-4-{6-(pyridin-4-yl)-8-[(pyridin-3-ylmethyl)amino]imidazo [1,2-a]pyrazin-3-yl} benzamide]",2 nM
22,"O=C(NC1CC1)c1ccc(-c2cnc3c(NCCCCO)nc(-c4ccncc4)cn23)cc1 [Example 3-11, N-cyclopropyl-4-{8-[(4-hydroxybutyl)amino]-6-(pyridin-4-yl)imidazo [1,2-a]pyrazin-3-yl} benzamide]",4.1 nM
23,"O=C(NC1CC1)c1ccc(-c2cnc3c(NCc4ccc(Cl)s4)nc(-c4ccncc4)cn23)cc1 [Example 3-31, 4-[8-{[(5-chlorothiophen-2-yl)methyl]amino}-6-(pyridin-4-yl)imidazo [1,2-a]pyrazin-3-yl]-N-cyclopropylbenzamide]",2.3 nM
24,"O=C(NC1CC1)c1ccc(-c2cnc3c(NCc4cccs4)nc(-c4ccncc4)cn23)cc1 [Example 3-1, N-cyclopropyl-4-{6-(pyridin-4-yl)-8-[(thiophen-2-ylmethyl)amino]imidazo[1,2-a]pyrazin-3-yl}benzamide]",4.1 nM
25,"Cc1cc(-c2cnc3c(NCC4CN(C)CCO4)nc(C4=CCOCC4)cn23)ccc1C(=O)NC1CC1 (stereo not shown) [Example 6-7, N-cyclopropyl-4-[6-(3,6-dihydro-2H-pyran-4-yl)-8-{[(4-methyl-morpholin-2-yl)methyl]amino}imidazo[1,2-a]pyrazin-3-y1]-2-methylbenzamide]",294 nM
